Where “and” joins values, the source holds several entries; their conditions need not be identical. Identical values can stand only once.
Assays:
[1] = system: MV/FrankfurtMain.DEU/17.11 (genotype D8); experiment: Clinical signs (rash score) in MeV-infected squirrel monkeys; details: for animals that developed spots or mild rash in the face or inguinal region: 50 mg/kg b.i.d. 14 days
Method: (§1) All animal experiments were carried out in compliance with the regulations of German animal protection laws and authorized by the Regierungspräsidium Darmstadt, Germany (Dezernat V54 – Veterinärwesen und Verbraucherschutz, Hilpertstrasse 31, 64295 Darmstadt). Adult male and female squirrel monkeys (Saimiri sciureus) were obtained from BioPRIM, 31450 Baziege, or CNRS 0846 Primatologie, 13790 Rousset, France. Each experimental group was housed in a separate room, and animals of the same sex were caged together within the respective groups. For the single-dose pharmacokinetic experiment, animals were anesthetized, and the drug was given through a stomach tube at a concentration of 50 mg/kg bodyweight. Blood samples were collected after 15, 30, and 60 min, and 2, 3, 6, and 24 h. For efficacy assessment, groups of 6 animals were left untreated or treated with 50 mg/kg of ERDRP-0519 twice daily for two weeks, starting either 12 h before or 3 or 7 days after intranasal infection with 10^6 TCID50 of MV/FrankfurtMain.DEU/17.11. Clinical signs, rectal temperature, and weight were recorded daily, and throat swabs and blood samples were collected before infection and twice weekly thereafter. On day 21 post-infection, the animals were euthanized, necropsied, and samples were collected for histological analysis.

[2] = system: MeV N gene RNA; experiment: Quantitative RT-PCR of MeV N-gene RNA in lymph nodes; type: in vivo; details: for MeV N-gene RNA levels in lymph nodes versus untreated: 21 days post-infection
Method: Organs (21 days post-infection) and PBMCs (twice a week) were frozen in RNAlater (Qiagen) at −80 °C until further processing. For the deceased animal, organs were frozen in RNAlater at the day of death. Lymph nodes were thawed on ice, transferred to TRIzol (ambion life technologies) and homogenized using a tissue homogenizer. Total RNA of lymph nodes and PBMCs was extracted following the TRIzol manufacturer’s protocol. RNA (1000 ng for lymph nodes; 110 ng for PBMCs) was then subjected to reverse transcription using random hexamer primers and Superscript III reverse transcriptase in accordance with the manufacturer’s protocols. Subsequent quantitative PCR (qPCR) was carried out using primer pairs specific for a fragment in the MeV N gene[23] or GAPDH gene(Supplementary Table 2) and the PowerUp SYBR Green Master Mix (Thermo Fisher Scientific) in an Applied Biosystems 7500 Real-Time PCR system. Samples were normalized for GAPDH. The comparative (ΔΔCt) Ct method was applied to determine relative amounts of N-encoding RNA present in samples from treated animals compared to those obtained from untreated control animals (lymph nodes) or compared to those obtained from untreated control animals on day 7 post-infection (peak PBMC virus titer).

[3] = Trough serum concentration during 14-day b.i.d. oral treatment of infected squirrel monkeys; details: for ERDRP-0519 trough serum concentration: 50 mg/kg b.i.d. oral
Method: as §1
Drug concentrations were determined using an internal standard and a reversed phase isocratic HPLC method with positive ion electrospray ionization (ESI) mass spectrometry detection (LC/MS/MS) on an AB-SCIEX API 5500 MS/MS instrument (5 μl injection volume). Pharmacokinetic parameters were estimated using WinNonlin 5.3 (Pharsight).

[4] = system: MV/FrankfurtMain.DEU/17.11 (genotype D8); experiment: PBMC-associated viremia titers (limited dilution, TCID50/10^6 PBMCs); type: in vivo, squirrel monkeys (Saimiri sciureus); details: for Viral titers: individual animals; for PBMC Titers, group mean (Mean 2): prophylactic
Method: White blood cell counts, viral load quantification in PBMCs, and quantification of neutralizing antibody titers were performed as follows: for white blood cell counts, blood was diluted 1:100 in 3% acetic acid and cells were counted using a Neubauer chamber. For viral load quantification in PBMCs, blood was centrifuged at 3000 rpm for 15 min and serum was frozen at −20 °C until further use. Red blood cell lysis was performed and the remaining PBMCs were counted using a Neubauer chamber. Viral titers in PBMCs were quantified in quadruplicates using limited dilution method and calculated as TCID50/10^6 PBMCs. Neutralizing antibody titers were quantified by incubating MeV with 2-fold serial dilutions of the respective serum for 20 min at room temperature in quadruplicates. Vero/hSLAM cells were added and incubated for 3 days at 37 °C. Neutralizing antibody titers are expressed as the reciprocal of the highest serum dilution showing no signs of infection. For virus titration from throat swabs, swabs were placed in 150 μl DMEM with 3% penicillin/streptomycin and the titer was quantified by limited dilution method.

Which results are given for `Cn1nc(C(F)(F)F)cc1C(=O)Nc1ccc(S(=O)(=O)N2CCCC[C@H]2CCN2CCOCC2)cc1` [ERDRP-0519]?
severe or generalized rash ([1]; all treated groups): none of the treated animals experienced severe or generalized rash; animals that developed spots or mild rash in the face or inguinal region ([1]; day 3 therapeutic group): Four of six animals; deaths during the study ([1]; day 3 therapeutic group, day 15 post-infection, authors conclude unrelated to drug or MeV): One animal in the day 3 therapeutic group developed mild diarrhea and deceased; animals that developed spots or mild rash in the face or inguinal region ([1]; day 7 therapeutic group): all animals; measles-typical clinical signs ([1]; prophylactic group, 50 mg/kg b.i.d. 14 days from 12 h prior to infection): remained free of measles-typical clinical signs; Lymph node fold difference, group mean (Mean 2) ([2]; prophylactic): 0.06859; fold difference (Lymph node MeV N RNA), individual animals ([2]; prophylactic): 0.002631 and 0.0102 and 0.1018 and 0.01292 and 0.2776 and 0.00638; MeV N-gene RNA levels in lymph nodes versus untreated ([2]; prophylactic group, p = 0.0295): significantly decreased; Lymph node fold difference, group mean (Mean 2) ([2]; therapeutic (d3)): 0.1137; fold difference (Lymph node MeV N RNA), individual animals ([2]; therapeutic (d3)): 0.5644 and 0.005805 and 0.02288 and 0.01111 and 0.0007117 and 0.07727; Lymph node fold difference, group mean (Mean 2) ([2]; therapeutic (d7)): 0.7008; fold difference (Lymph node MeV N RNA), individual animals ([2]; therapeutic (d7)): 1.441 and 0.8274 and 0.2474 and 0.8349 and 0.2786 and 0.5749; MeV N-gene RNA levels in lymph nodes versus untreated ([2]; therapeutic day 3 group, p = 0.0346): significantly decreased; Lymph node fold difference, Mean Diff, ([2]; untreated vs. prophylactic): 1.828; Lymph node fold difference, Mean Diff, ([2]; untreated vs. therapeutic (d3)): 1.783; Lymph node fold difference, Mean Diff, ([2]; untreated vs. therapeutic (d7)): 1.196; ERDRP-0519 trough serum concentration ([3]; 0 days post-treatment, individual animals): 0 µM and 0.05627 µM and 0.03323 µM; ERDRP-0519 trough serum concentration ([3]; 3 days post-treatment, individual animals): 0.9158 µM and 2.53 µM and 4.796 µM and 7.1567 µM and 0.8139 µM and 7.176 µM and 3.758 µM and 1.907 µM and 3.569 µM and 2.058 µM and 2.606 µM and 7.006 µM and 2.984 µM and 1.541 µM and 2.285 µM; ERDRP-0519 trough serum concentration ([3]; 7 days post-treatment, individual animals): 0.9763 µM and 1.28 µM and 2.908 µM and 3.21 µM and 2.4548 µM and 4.759 µM and 3.323 µM and 2.832 µM and 2.134 µM and 0.6741 µM and 2.096 µM and 3.644 µM and 0.525 µM and 0.5703 µM; ERDRP-0519 trough serum concentration ([3]; 10 days post-treatment, individual animals): 1.654 µM and 2.228 µM and 2.832 µM and 4.4753 µM and 4.4 µM and 4.664 µM and 1.699 µM and 1.669 µM and 0.9989 µM and 0.9857 µM and 2.153 µM and 3.116 µM and 0.6949 µM and 1.573 µM and 0.608 µM; ERDRP-0519 trough serum concentration ([3]; 14 days post-treatment, individual animals): 0.08309 µM and 0.0727 µM and 0.355 µM and 0.6534 µM and 1.862 µM and 2.172 µM and 2.474 µM and 1.513 µM and 0.2417 µM and 0.676 µM and 1.412 µM and 0.1537 µM and 0.3267 µM and 0.02398 µM; concentration at 7 days post-infection ([3]; both, monkey, serum, oral, 50 mg/kg twice daily, ERDRP-0519 serum conc., therapeutic(d7) group, day 7 post-infection, individual animals): 0 nM; Mean drug plasma concentration of all animals over the full study period ([3]; monkey, in vivo): ~ 1.6 µM; drug accumulation on repeat-dosing ([3]; multi-dose b.i.d., 15 animals): does not result in ERDRP-0519 accumulation; effect on PBMC-associated virus replication ([4]; day 3 therapeutic administration): effectively suppressed virus replication; Viral titers ([4]; prophylactic group, day 3): 1.745 log10(TCID50/106 PBMCs); Viral titers ([4]; prophylactic group, day 7): 1.509 log10(TCID50/106 PBMCs) and 0 log10(TCID50/106 PBMCs); Viral titers ([4]; prophylactic group, day 10): 1.807 log10(TCID50/106 PBMCs); Viral titers ([4]; prophylactic group, day 17): 0.7747 log10(TCID50/106 PBMCs); Viral titers ([4]; prophylactic group, day 21): 2.352 log10(TCID50/106 PBMCs); decrease of viremia titers on average compared to untreated animals ([4]; prophylactic treatment): up to 250 fold; PBMC Titers, group mean (Mean 2) ([4]; Row 1 (1st of 7 time points)): 0; PBMC Titers, group mean (Mean 2) ([4]; Row 2 (2nd of 7 time points)): 0.2908; PBMC Titers, group mean (Mean 2) ([4]; Row 3 (3rd of 7 time points)): 0.2514; PBMC Titers, group mean (Mean 2) ([4]; Row 4 (4th of 7 time points)): 0.3012; PBMC Titers, group mean (Mean 2) ([4]; Row 5 (5th of 7 time points)): 0; PBMC Titers, group mean (Mean 2) ([4]; Row 6 (6th of 7 time points)): 0.1283; PBMC Titers, group mean (Mean 2) ([4]; Row 7 (7th of 7 time points)): 0.3917; Viral titers ([4]; therapeutic (d3) group, day 3): 1.097 log10(TCID50/106 PBMCs) and 1.77 log10(TCID50/106 PBMCs); Viral titers ([4]; therapeutic (d3) group, day 7): 0.7905 log10(TCID50/106 PBMCs) and 1.004 log10(TCID50/106 PBMCs) and 2.281 log10(TCID50/106 PBMCs) and 0 log10(TCID50/106 PBMCs); Viral titers ([4]; therapeutic (d3) group, day 10): 1.35 log10(TCID50/106 PBMCs) and 0.8861 log10(TCID50/106 PBMCs) and 2.045 log10(TCID50/106 PBMCs)

From publication PMC8413292, “Small-molecule polymerase inhibitor protects non-human primates from measles and reduces shedding” (Nature Communications, 2021)
